A short description of this series: in vivo. Particulars: male, Sprague-Dawley, rat, ip, 10 mg/kg.

These results are taken from paper PMC12038163 (Research, 2025).

For `Cc1cccc(-c2ccc(-c3cc4cnc(NC5CC5)nc4n(CCCCCC(=O)NO)c3=O)c(Cl)c2)n1` [ZMF-25], the AUC(0-inf) (usually total exposure, with the tail of the curve extrapolated) came to 9100 ng·h/mL; the AUC(0-t) (commonly exposure summed from dosing to a finite time, without extrapolation to infinity) amounted to 9070 ng·h/mL; the CL/F (commonly the apparent clearance, not corrected for the fraction that reaches the circulation) is 30 mL/min/kg; the Cmax (usually the maximum level reached in the sampled fluid or tissue) was found to be 5110 ng/mL. For the same compound, the half-life (in general, the time in which the quantity being followed falls by half) is 1.4 ± 0.3 h.
